Laboratory results published in ChEMBL document CHEMBL3507680, “University of Dundee, Gates Library screen for HepG2 cell viability”.

Assay: Human HepG2 cell viability assay in 384 well format
Format: toxicity, cell-based
Parameters: dose 125 nL, time 70.5 hour; concentration not given beside the values
Conditions: HepG2 cells, read-out: Inhibition

| SMILES | cytotoxicity at 70.5 h [%] |
| --- | --- |
| CCOC(=O)C1CCCN(c2nccc(-n3nc(C)cc3C)n2)C1 (stereo not drawn) | -9.69 |
| Cc1ccn(-c2ccnc(N3CCN(c4ncccn4)CC3)n2)n1 | -9.69 |
| CCc1cc(=O)n(CC(=O)N2CCCC2)c(-c2ccc(F)cc2)n1 | -5.4 |
| Cc1cc2nc(SCC(=O)NC(C)C)n(Cc3ccco3)c(O)c-2n1 | -14.4 |
| CN1CCN(C(=O)c2[nH]nnc2Nc2ccccc2F)CC1 | -14.3 |
| CC(C)CN1CCN(C(=O)c2[nH]nnc2Nc2ccccc2F)CC1 | 8.05 |
| CCc1cc(=O)n(CC(=O)N2CCC(C)CC2)c(-c2ccccc2)n1 | -10.3 |
| Cc1nc(-c2cccc(Cl)c2)n(CC(=O)NCC2CCCO2)c(=O)c1C (stereo not drawn) | 3.53 |
| CCn1cc(NC(=O)c2cc(C)nc(N3CCOCC3)n2)cn1 | -10.6 |
| CC(=O)NCCCn1ncc2c(C)cccc21 | -10.8 |
| CCS(=O)(=O)NCCCn1ncc2c(C)cccc21 | -1.77 |
| c1cc(-c2nn3c(CN4CCOCC4)nnc3s2)ccn1 | -8.04 |
| COc1ccc(C)cc1S(=O)(=O)NCCC(O)c1ccccc1 (stereo not drawn) | -10.5 |
| Cc1cc2n(n1)[C@@H](C(F)(F)F)C[C@@H](C1CCN(C(=O)C3CC3)CC1)N2 | -2.95 |
| CCc1cc(C(=O)N2CCC(c3cc4ncccc4cn3)CC2)no1 | 18.3 |
| CCCN1C[C@H](NC(=O)c2cccs2)[C@@H](c2ccc(OC)cc2)C1 | 0.254 |
| Cc1cc(C)n(CCCC(=O)N2CCc3ncc(Cl)cc3C2)n1 | 30.1 |
| Cc1nc(C)n(CC(=O)N2CCc3ncc(Cl)cc3C2)n1 | 7.22 |
| Cc1cnc(-c2nc(C3CCN(C(=O)Cc4ccsc4)CC3)no2)cn1 | 2.59 |
| CN1CCN(C(=O)CCn2c(C(F)(F)F)cc3cccnc32)CC1 | 34.4 |
| Cn1nccc1C(=O)N1Cc2ccccc2OC2(CCOCC2)C1 | 1.33 |
| Cc1ccc(C(=O)N2Cc3ccccc3OC3(CCOCC3)C2)cn1 | 30.6 |
| COc1ccc(-c2cc3nc([C@H](C)NC(=O)C4CC4)nn3cn2)cc1 | -0.493 |

| SMILES | cytotoxicity at 70.5 h [%] |
| --- | --- |
| C[C@H](NC(=O)C1CCCC1)c1nc2cc(-c3ccc(F)cc3)ncn2n1 | 4.97 |
| COc1ccccc1C1=NOC(CC2(C(=O)NCCO)CCOCC2)C1 (stereo not drawn) | 0.737 |
| c1ccc(-c2cc(CNCCN3CCOCC3)c3nnnn3c2)cc1 | -0.928 |
| COCCOCC(=O)N1C[C@@H]2CC[C@H](Oc3ccccc3Cl)[C@@H]2C1 | 0.895 |
| O=C(O)c1ccccc1CN1CCOC(CCc2ccncn2)C1 (stereo not drawn) | -4.46 |
| CS(=O)(=O)NC[C@]1(O)CCN(C(=O)Cc2cccs2)C[C@H]1O | 12.2 |
| COCCCNC(=O)c1ccccc1-n1cc(CN(C)C)cn1 | -7.43 |
| c1ccc(CO[C@H]2C[C@@H]3CN(Cc4cccnc4)C[C@@H]3C2)cc1 | -3.52 |
| Cc1cnc(C(=O)N(C)[C@@H]2CCC[C@@H](Oc3ccccc3)[C@@H]2O)cn1 | 16.9 |
| Cc1nc2ccccn2c1CC(=O)N[C@@H]1CC[C@@H](N2CCOCC2)[C@@H]1O | -1.29 |
| Cc1n[nH]c(C)c1-c1cnc(CC2CCN(C(C)C)CC2)cn1 | -2.78 |
| CN1CCCC[C@@H]2[C@H]1[C@@H](c1ccccc1)CCN2S(=O)(=O)N1CCCC1 | -1.85 |
| COCCN1CCCC(c2nc(C)n3c(C)c(C)sc23)C1 (stereo not drawn) | -5.38 |
| Cc1cccc2nc(C(=O)N3CCCC[C@]4(C)NC(=O)CC[C@H]34)cn12 | -0.96 |
| O[C@H]1CN(Cc2ccc3c(c2)OCCO3)CC[C@@]12CCCO2 | -2.15 |
| CO[C@H]1CN(Cc2ccc(F)cc2)CC[C@@]12CCCO2 | 6.89 |
| O=C(CCCn1cccn1)N1C[C@@H](O)[C@H](Oc2cccc(F)c2)C1 | 3.04 |
| CC(C)n1ccnc1CN1CCCC1c1cccc(-n2ccnc2)n1 (stereo not drawn) | -2.76 |
| Nc1nccnc1C1CN(C(=O)c2cnc(C3CC3)nc2)CCO1 (stereo not drawn) | -4.03 |
| CN1CCN(C(=O)C2CCCN(c3cccnn3)C2)CC1 (stereo not drawn) | 26.4 |
| COc1ccc(OC)c(C(O)CN2CCC(N3CCC(C)CC3)CC2)c1 (stereo not drawn) | 2.26 |
| CC(=O)N1CCC(C(=O)N2CCCC(Cc3cccc(C)n3)C2)CC1 (stereo not drawn) | -4.08 |
| Cn1nccc1CCC(=O)N1CCC(c2cnccn2)CC1 | -13.1 |

| SMILES | cytotoxicity at 70.5 h [%] |
| --- | --- |
| Cc1nc2ccc(C(=O)N3C[C@@H](O)[C@H](N4CCOCC4)C3)cc2[nH]1 | 12 |
| CCN(Cc1ccncc1)CC1(O)CCN(C(=O)c2ccccc2C)C1 (stereo not drawn) | -2.28 |
| CNc1cncc(C2CCCN2S(=O)(=O)c2ccccc2)n1 (stereo not drawn) | 0.983 |
| CS(=O)(=O)c1cn[nH]c1C1CCCCN1C(=O)c1cncs1 (stereo not drawn) | -6.78 |
| Cn1nccc1CCC(=O)N1CCCC(c2cnccn2)C1 (stereo not drawn) | 12.9 |
| CNC(=O)c1ccc(C2CCCN(C(=O)c3c(C)noc3C)C2)nc1 (stereo not drawn) | -7.86 |
| CC(=O)N1CCC(Cc2cncc(-c3c(C)n[nH]c3C)n2)C1 (stereo not drawn) | -9.36 |
| CC1CCN(CCNCc2cc(-c3ccccc3)cn3nnnc23)CC1 | -3.94 |
| COCCN1CCN(Cc2cnc(C)nc2)CC1 | -6.04 |
| Cn1ccnc1C(=O)N1CCOC(Cc2ccccc2Cl)C1 (stereo not drawn) | 11.6 |
| O=C(CCn1ccnc1)N1C[C@@H](O)[C@H](Oc2cccc(F)c2)C1 | 0.895 |
| Cc1cc(C)nc(C2CCN(C(=O)c3c(C)noc3C)C2)n1 (stereo not drawn) | -3.76 |
| Cc1cc(C)nc(C2CCN(C(=O)c3cncnc3C)C2)n1 (stereo not drawn) | 12.9 |
| O=S(=O)(c1ccc(F)c(F)c1)N1CCCC(c2nccs2)C1 (stereo not drawn) | 1.6 |
| CCc1nnc(Nc2cccc(C3CCN(c4cnccn4)CC3)n2)s1 | 14.7 |
| CCc1nnc(Nc2cccc(C3CCN(C(=O)CNC)CC3)n2)s1 | 10.1 |
| CCc1nnc(Nc2cccc(C3CCN(C(=O)CN(C)C)CC3)n2)s1 | 9.15 |
| c1ccc(CN2CCC(c3nccnc3-n3ccnc3)CC2)cc1 | -14.9 |
| CCc1nnc(Nc2cccc(C3CCCN(CC(C)(C)C)C3)n2)s1 (stereo not drawn) | -10.7 |
| CCC(=O)N1CCC(Cc2ccccc2-c2ccncc2)(C(N)=O)C1 (stereo not drawn) | -10.9 |
| CC(C)c1ncc(CN2CCOC(C(=O)Nc3ccccc3)C2)cn1 (stereo not drawn) | -9.69 |
| Cc1ccc(C(=O)N2CCCCC2CN(C)C)cc1 (stereo not drawn) | 4.31 |
| COCCCNC(=O)CN(C)C(C)c1nc(C)no1 (stereo not drawn) | -3.18 |

| SMILES | cytotoxicity at 70.5 h [%] |
| --- | --- |
| CC(C#N)CN(C)C(=O)CCNC(=O)C(C)(C)C (stereo not drawn) | 0.0301 |
| Cc1nc(CN2CCOC3(CCCC3)C2)oc1C | -4.4 |
| CCN1CCOC(CNCc2cnc(C(C)(C)C)s2)C1 (stereo not drawn) | -5.25 |
| CNC(=O)CN1CCC(CN(C)Cc2ccccc2N(C)C)CC1 | 1.48 |
| CC(O)CN(C)C(=O)CCNC(=O)OC(C)(C)C (stereo not drawn) | -3.37 |
| COc1c(Cl)cc(Cl)cc1CN1CCC(C(N)=O)C1 (stereo not drawn) | 8.49 |
| COc1ccccc1/C=C/CNCC1CCc2nncn2C1 (stereo not drawn) | 8.27 |
| Cc1cc(C)cc(NCCC(=O)NC2CCN(C(=O)C3CC3)CC2)c1 | -2.45 |
| CCOC1CCN(C(=O)c2ccc(-c3cccc(C)c3)[nH]c2=O)CC1 | -8.75 |
| Cc1cccc(-c2ccc(C(=O)N3CCN(C(C)C)CC3)c(=O)[nH]2)c1 | -2.78 |
| O=C(c1ccc(-c2ccccc2)[nH]c1=O)N1CCN(C2CC2)CC1 | -8.84 |
| COc1ccccc1CC(C)CC(=O)NC(C)C (stereo not drawn) | 0.743 |
| CCOc1c(F)cccc1C(=O)N(C)CCc1ccccn1 | 36.5 |
| CS(=O)(=O)CCn1ccc(NC(=O)Cc2ccccc2Cl)n1 | -1.99 |
| O=C(C(c1ccccc1)S(=O)(=O)c1ccccn1)N1CCCCC1 (stereo not drawn) | -7.07 |
| NC(=O)C1CCN(C(=O)NC2CCN(CC3CCCC3)C2)CC1 (stereo not drawn) | 9.67 |
| CN(C)Cc1ccnc(NS(=O)(=O)Cc2cccc(F)c2)c1 | 1.98 |
| CCN(C)S(=O)(=O)NCC(O)c1c(Cl)cccc1Cl (stereo not drawn) | 18.4 |
| NC(=O)c1cn(CC2CCC2)c(C2CC2)n1 | 3.19 |
| Cn1cc(CNc2nc3cc(Cl)ccc3n2C)cn1 | -0.411 |
| Cc1c(F)cccc1S(=O)(=O)Nc1noc(C(C)C)n1 | -7.44 |
| Cc1nc(NS(=O)(=O)c2cccc(F)c2C)no1 | 6.79 |
| C=C(C)Cn1cc(C(N)=O)nc1C1CC1 | 20.9 |

| SMILES | cytotoxicity at 70.5 h [%] |
| --- | --- |
| CC(C)c1nnc2n1CC(CNC/C=C/c1ccccc1)CC2 (stereo not drawn) | -7.41 |
| Cc1nn(C)c2ncc(CNCCc3ccccn3)cc12 | -8.59 |
| CN1CCN(C)C(CNC(=O)N(C)Cc2ccc(Cl)c(F)c2)C1 (stereo not drawn) | -11.2 |
| CCOc1c(F)cccc1C(=O)N(C)CCn1cccn1 | 7.19 |
| CC(C)c1cc(NC(=O)CNC2CCc3ncnn3C2)on1 (stereo not drawn) | 11.4 |
| CCOC(C)c1nccn1CCC(=O)Nc1cc(C)on1 (stereo not drawn) | 6.06 |
| CC(C)c1nc(NS(=O)(=O)c2ccccc2Cl)no1 | 0.444 |
| CCc1cc(C)c(C(=O)N2CCCC(c3nnn[nH]3)C2)o1 (stereo not drawn) | -0.273 |
| Cc1n[nH]c(C2CN(CCNC3CCCCC3)CCO2)n1 (stereo not drawn) | 3.49 |
| CC(C(=O)NC(C)(C)C)S(=O)(=O)Cc1noc(C(C)(C)C)n1 (stereo not drawn) | -5.8 |
| Cc1ccc(CN(c2cc(C)nc3nc(C(F)(F)F)nn23)C2CC2)cc1 | 0.825 |
| CC(=O)C(Cc1ccccc1)NC(=O)CSc1nccn1C1CC1 (stereo not drawn) | -0.98 |
| Cc1cc(N(Cc2ccccn2)C2CC2)n2nc(C(F)(F)F)nc2n1 | -0.852 |
| O=C1CSc2ccc(C(=O)N3CCCC(n4ccnc4)C3)cc2N1 (stereo not drawn) | -1.51 |
| CC(=O)NCc1ccc(S(=O)(=O)NC(=O)c2ccc3c(c2)COC3)s1 | 0.101 |
| N#CCCN(CC1CCOC1)Cn1ccc(-c2ccccc2)n1 (stereo not drawn) | -0.616 |
| CC(C)OCCCN(Cc1ccncc1)Cc1cccc(F)c1F | 22.3 |
| CC(C)OCCCN(Cc1ccncc1)Cc1cccc(F)c1 | 1.37 |
| Cc1ccc(Nc2nccc(C3CCN(C(=O)CN)C3)n2)nc1 (stereo not drawn) | -5.12 |
| COc1cc(CN2CCn3c(CO)nnc3C2)ccc1OC(C)C | 34.7 |
| Cc1ccc(CN(CCCn2ccnc2)Cc2cccs2)s1 | 18.6 |
